In brackets after ≈: the same amount, converted by molar mass. Where a name gives a salt, the structure may show the parent alone.
Experiments:
Format in all cases: physicochemical
[1] = Solubility in phosphate buffer (PBS pH 7.4)
Procedure: (§1) The dihydrogen phosphate salt has increased aqueous solubility over the free form and the hydrochloride salt. The following chart lists the solubilities of the free form, the hydrochloride salt and the dihydrogen phosphate salt at 25° C. in phosphate buffer (PBS pH 7.4, a mixture of 19% of a 0.1M monobasic sodium phosphate solution and 81% of a 0.1M dibasic sodium phosphate solution) and the solubilities of the free form and the dihydrogen phosphate salt 37° C. in a simulated intestinal fluid under fasted conditions (“FaSSIF”, prepared according to Dressman J. B., Amidon G. L., Reppas C. and Shah V. P., Dissolution testing as a prognostic tool for oral drug absorption: immediate release dosage forms, Pharmaceutical Research: 1998, Vol. 15, No. 1, 11-22).

[2] = Solubility in simulated intestinal fluid under fasted conditions (FaSSIF)
Procedure: as §1

[3] = Dynamic water vapor sorption (DVS) hygroscopicity; conditions: at 94% relative humidity (RH)
Procedure: Dynamic Water Vapor Sorption (DVS)
The water sorption profile is determined using a SMS Instruments Dynamic Vapor Sorption Analyzer Model DVS-1 or VTI Instruments Model SGA-100 Dynamic Vapor Sorption Analyzer. RH and weight are calibrated using standards. The dihydrogen phosphate salt is loaded and dried at ≦1% RH for 2.5 hours prior to starting the experiment. The RH is stepped from about 0 to 95% RH. The specimen weight is considered constant at each step when percent mass change is less than 0.005% over a 5-minute interval with a minimum absolute equilibration time of 15 minutes.

Solubility (PBS pH 7.4, 25° C., μg/mL) [1] [μg/mL] | Solubility in FaSSIF (37° C., ug/mL) [2] [µg/mL] | weight gain during the sorption (DVS) [3] [%] | SMILES
<1 | 14 (≈ 30.4 µM) |  | COc1nc(NCCc2ccc(Cl)cc2Cl)cc(-c2cccc(C(C)(C)C(=O)O)c2)n1 [Free form, 2-(3-{6-[2-(2,4-dichloro-phenyl)-ethylamino]-2-methoxy-pyrimidin-4-yl}-phenyl)-2-methyl-propionic acid]
15 | 266 | ~0.9 | COc1nc(NCCc2ccc(Cl)cc2Cl)cc(-c2cccc(C(C)(C)C(=O)O)c2)n1 [Dihydrogen phosphate salt, Dihydrogen phosphate salt of 2-(3-{6-[2-(2,4-Dichloro-phenyl)-ethylamino]-2-methoxy-pyrimidin-4-yl}-phenyl)-2-methyl-propionic acid]
5 |  |  | COc1nc(NCCc2ccc(Cl)cc2Cl)cc(-c2cccc(C(C)(C)C(=O)O)c2)n1 [Hydrochloride salt, 2-(3-{6-[2-(2,4-dichloro-phenyl)-ethylamino]-2-methoxy-pyrimidin-4-yl}-phenyl)-2-methyl-propionic acid]

Source: US7642249B2, “Dihydrogen phosphate salt of a prostaglandin D2 receptor antagonist” (Aventis Pharmaceuticals Inc., priority 2005, dated 2010)
